Experimental data reported in patent US20220054463A1, “METHODS OF TREATING ANEURYSMS” (University of Pittsburgh-of the Commonwealth System of …, priority 2020, published 2022).

Columns and labels:
[1] = test system: murine intracranial aneurysms; experiment: Mouse intracranial aneurysm model (aneurysm formation); type: in vivo, mouse (C57BL/6)
Text: Mouse Intracranial Aneurysm Model. Murine intracranial aneurysms were created in female 8-12 week-old C57BL/6 mice (Charles River Laboratories, Wilmington, Mass.) using a method described previously (Hosaka et al., Journal of neurointerventional surgery. 2014; 6:474-9). Briefly, the left common carotid artery and the right renal artery were ligated to induce hypertension. One week later, an Alzet micro-osmotic pump model 1004 (DURECT Corp, Cupertino, Calif.) was implanted subdermally to deliver Angiotensin II (Bachem AG, Switzerland) at 1000 ng/kg/min. 10 μL of 0.8% porcine elastase (Worthington Biochemical Corp, Lakewood, N.J.) in normal saline was injected into the right basal cistern using stereotactic coordinates: 1.2 mm rostral of bregma, 0.7 mm lateral of midline and 5.3 mm ventral of the dorsal aspect of the skull. The animals were fed a hypertensive diet with 8% NaCl and 0.12% BAPN (TEKLAD). Clopidogrel was administered at 1 mg/kg in normal saline via intraperitoneal injection every two days. Reparixin was administered at 10 mg/kg in normal saline via intraperitoneal injection every two days. PBS-treated animals received 10 μL injection of phosphate buffered saline subcutaneously every two days. […] Each Circle of Willis was examined by a blinded observer and aneurysm formation was recorded (yes/no). […]

[2] = test system: cytokines (inflammatory profile); experiment: Cytokine arrays in aneurysm-induced cerebral vasculature; type: in vivo, mouse; conditions: aneurysmal mice, 2 versus 3 weeks; FIG. 5
Text: Mouse Intracranial Aneurysm Model. Murine intracranial aneurysms were created in female 8-12 week-old C57BL/6 mice (Charles River Laboratories, Wilmington, Mass.) using a method described previously (Hosaka et al., Journal of neurointerventional surgery. 2014; 6:474-9). Briefly, the left common carotid artery and the right renal artery were ligated to induce hypertension. One week later, an Alzet micro-osmotic pump model 1004 (DURECT Corp, Cupertino, Calif.) was implanted subdermally to deliver Angiotensin II (Bachem AG, Switzerland) at 1000 ng/kg/min. 10 μL of 0.8% porcine elastase (Worthington Biochemical Corp, Lakewood, N.J.) in normal saline was injected into the right basal cistern using stereotactic coordinates: 1.2 mm rostral of bregma, 0.7 mm lateral of midline and 5.3 mm ventral of the dorsal aspect of the skull. The animals were fed a hypertensive diet with 8% NaCl and 0.12% BAPN (TEKLAD). Clopidogrel was administered at 1 mg/kg in normal saline via intraperitoneal injection every two days. Reparixin was administered at 10 mg/kg in normal saline via intraperitoneal injection every two days. PBS-treated animals received 10 μL injection of phosphate buffered saline subcutaneously every two days. […] In addition, cytokines were analyzed in human cerebral aneurysm, superficial temporal artery, and peripheral intravenous blood specimens that were collected at the time of surgery.

`COC(=O)[C@H](c1ccccc1Cl)N1CCc2sccc2C1` [clopidogrel] was tested, and the mice developing aneurysms ([1]; 1 mg/kg clopidogrel, controls 59%, p<0.001, FIG. 3A) was 0% and the “attenuation of inflammatory profile (temporal dynamics of 96 cytokines)” value [2] was “moderate response”.

`CC(C)Cc1ccc([C@@H](C)C(=O)NS(C)(=O)=O)cc1` [reparixin] was tested, and the mice developing aneurysms ([1]; 10 mg/kg reparixin, PBS:DMSO treated control mice 59%, p=0.0163, FIG. 3B) was 14% and the “attenuation of inflammatory profile (temporal dynamics of 96 cytokines)” value [2] was “robust anti-inflammatory effects”.
